These results are taken from the METLIN SMRT retention time set (Domingo-Almenara et al. 2019).

The series is described as follows: gradient 5% acetonitrile 3 min, to 50% in 2 min, to 85% in 15 min, held 3 min, 100 µL/min. The note with it: column: Zorbax Extend-C18 2.1 x 50 mm; eluents: water / acetonitrile, 0.1% formic acid. Put shortly: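 The system's dead and dwell volumes were 40 μL and 900 μL, with a Zorbax Extend-C18 column (2.1 × 50 mm, 1.8 μm) run at 100 μL/min in water and acetonitrile containing 0.1% formic acid each. Pure standards were analyzed in mixtures of ~100 molecules by HPLC–quadrupole time-of-flight mass spectrometry in positive and negative ionization mode. Retention time was assigned from computationally picked, manually inspected adduct peaks.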
`Cc1nc(-c2ccccc2)sc1C(=O)Nc1c(C)nc2ccc(Cl)cn2c1=O` displayed an RP-LC retention time of 737 s.

In turn, `CCN1CCN(C(=O)c2n[nH]c3c2CC(C)CC3)CC1` (stereo unspecified) came in with an RP-LC retention time of 567 s.

`CCc1nnc(-c2ccc3ccn(CC(=O)NCc4ccccn4)c3c2)o1` gave an RP-LC retention time of 629 s.

The molecule `COc1cc(OC)cc(-c2nc(-c3ccc4c(c3)oc(=O)n4C(C)C)no2)c1` yielded an RP-LC retention time of 1080 s.

Take `CCCCN(C)C(=O)C1CCN(c2cncnc2N(C)C)CC1`: the RP-LC retention time worked out at 611 s.

For the molecule `CN(C)c1nc2ncn3c(=O)n(CC(=O)NCc4ccc(F)cc4)nc3c2s1`, the RP-LC retention time was found to be 675 s.

Take `COc1ccc(N2CC(c3nc(-c4ccccn4)no3)CC2=O)cc1Cl` (stereo unspecified): the RP-LC retention time turned out to be 724 s.

For `CCCNc1cc(N2CCC(CCC(=O)NCc3ccccc3)CC2)ncn1`, the RP-LC retention time amounted to 666 s.

In turn, `Cc1ccc(Cn2c(C(=O)NCCc3ccccc3)cc3sccc32)cc1` showed an RP-LC retention time of 1180 s.

In turn, `COc1ccc(-c2nc(C3CC(=O)N(c4ccc(Cl)cc4)C3)no2)cc1F` (stereo unspecified) displayed an RP-LC retention time of 1030 s.

For `CCOc1ccc(N2CCCCn3c2nc2c3c(=O)n(CC(C)C)c(=O)n2C)cc1`, the RP-LC retention time was 1110 s.

`CCc1cc2c(N3CCCC(C(=O)N(C)C)C3)nccc2s1` (stereo unspecified) showed an RP-LC retention time of 640 s.

Take `Cc1nn(-c2ccc(C(=O)NCc3ccco3)cc2)c2c1C(=O)CC(C)(C)C2`: the RP-LC retention time stood at 756 s.

Take `CCOCCCN1C(=O)c2cc(-c3ccccc3)nn2CC1(C)C(=O)NCc1ccccc1` (stereo unspecified): the RP-LC retention time was found to be 914 s.

`CC(C)C(=O)N1CC[C@H](CO)[C@H](NC(=O)C2CC2)C1` had an RP-LC retention time of 583 s.

`COCc1c(C(=O)O)nnn1-c1cc(C)ccc1F` displayed an RP-LC retention time of 708 s.

As for `Cc1cc(=O)n(CC(=O)Nc2cccc(C#N)c2)c(N2CCc3ccccc3C2)n1`, the RP-LC retention time amounted to 772 s.

As to `O=C(NC1(c2nc(-c3cccnc3)no2)CCCCC1)c1ccc(Br)cc1`, the RP-LC retention time stood at 1010 s.

For `COC(=O)c1c(C)[nH]c(C(=O)N2CCCC(C(=O)NC3CCCCCC3)C2)c1C` (stereo unspecified), the RP-LC retention time was found to be 794 s.

As for `CCn1c(N2CCCC(C(=O)NCCCOC)C2)cc(=O)n(C)c1=O` (stereo unspecified), the RP-LC retention time turned out to be 665 s.

As for `CCC(C(=O)N1CCN(c2cc(-c3ccc(Cl)cc3)[nH]n2)CC1)c1ccccc1` (stereo unspecified), the RP-LC retention time is 987 s.

For the molecule `O=C(NC1CCCCCC1)C1CCN(Cc2cc3ccccc3n2Cc2ccccc2)CC1`, the RP-LC retention time amounted to 845 s.

Molecule `Cc1ccc(=O)n(CC(=O)NCc2cccs2)n1` came in with an RP-LC retention time of 591 s.

Consider `Cc1ccc(-c2cc3c4nnc(SCC(=O)Nc5ccc(Cl)cc5)n4ccn3n2)cc1C`, for which the RP-LC retention time worked out at 1080 s.

In turn, `Cc1ccc(NC(=O)Nc2cccc(-c3ccc(N4CCOCC4)nn3)c2)c(C)c1` came in with an RP-LC retention time of 732 s.

With `O=C(Nc1cnc2ccccc2c1)N(c1ccccc1)c1ccccc1`, the RP-LC retention time is 754 s.

On to `COc1cc(NC(=O)Cn2c(C)nc3c(sc4nc(-c5ccccc5)ccc43)c2=O)cc(OC)c1`, for which the RP-LC retention time is 1060 s.

Molecule `Cc1cc2c3ccccc3ncn2n1` showed an RP-LC retention time of 855 s.

`O=C1CCC(NC(=O)c2ccccc2)C(=O)N1` (stereo unspecified): the RP-LC retention time turned out to be 650 s.

`Cc1ccccc1NC(=O)Cn1c(C)nc2onc(C)c2c1=O` displayed an RP-LC retention time of 738 s.

Consider `COC(=O)c1ccc2c(=O)n(-c3cccc(C)c3)c(N3CCCC3)nc2c1`, for which the RP-LC retention time was determined as 953 s.

`Cc1cc(N(CCO)CCO)n2nc(-c3ccc(C(C)(C)C)cc3)nc2n1` came in with an RP-LC retention time of 687 s.

For `O=C(NCCCc1ccccc1)C(=O)NCc1n[nH]c(=O)c2ccccc12`, the RP-LC retention time amounted to 746 s.

In turn, `CCn1cc(-c2ccc(C)cc2)cc1C(=O)NC(C)C` yielded an RP-LC retention time of 1040 s.

As for `Cc1cc(C)c(CNC(=O)C2CCN(c3cncnc3N3CCN(C)CC3)CC2)c(C)c1`, the RP-LC retention time was 598 s.

Turning to `CC(C)c1ccc(NC(=O)C2CC(=O)N(CCc3c[nH]c4ccc(Cl)cc34)C2)cc1` (stereo unspecified), the RP-LC retention time was 983 s.

In turn, `COc1ccc(Cl)cc1NC(=O)CC1CCCCN1S(=O)(=O)c1ccc(F)cc1` (stereo unspecified) showed an RP-LC retention time of 1080 s.

The molecule `O=C(c1ccsc1)N1CCCC(c2nc(-c3ccccc3)n[nH]2)C1` (stereo unspecified) registered an RP-LC retention time of 716 s.

Molecule `CCCCn1cnc2c(nnn2C)c1=O` showed an RP-LC retention time of 621 s.

`CCOC(=O)N1CCN(S(=O)(=O)c2ccc(C(=O)Nc3cc(C)no3)cc2)CC1` registered an RP-LC retention time of 736 s.

In turn, `Cc1noc(C)c1Cn1cccc(S(=O)(=O)N2CCCC2)c1=O` displayed an RP-LC retention time of 644 s.

As for `c1cc2c(cc1-c1nnc(C3CCCC3)o1)OCO2`, the RP-LC retention time was 944 s.

The molecule `O=S(=O)(NCCC1=CCCCC1)c1ccc(-c2cc(C(F)(F)F)on2)o1` displayed an RP-LC retention time of 1240 s.

`CCN1CCN(C(=O)Nc2cccc(C(=O)OC)c2)c2cccnc21` returned an RP-LC retention time of 612 s.

Molecule `COc1ccc(C2CC(=O)c3c(C)nc(N4CCN(c5ccccn5)CC4)nc3C2)cc1OC` (stereo unspecified) gave an RP-LC retention time of 676 s.

For the molecule `CSc1ccc(NC(=O)c2cn3c(n2)CSCC3)cc1`, the RP-LC retention time worked out at 727 s.

`CC(C)OCCCNC(=O)C1CCN(c2nc3cccnc3s2)CC1` had an RP-LC retention time of 659 s.

Regarding `Cc1ccc(-c2cn3c(CC(=O)NC4CCCCC4)csc3n2)cc1C`, the RP-LC retention time worked out at 829 s.

The molecule `CCOc1ccc(NC(=O)C2CCCN(c3cnc4nccnc4c3)C2)cc1` (stereo unspecified) yielded an RP-LC retention time of 689 s.

`COc1ccc(NC(=O)C2CCN(S(C)(=O)=O)c3ccccc3O2)cc1` (stereo unspecified) registered an RP-LC retention time of 824 s.

For `CC(C)(CO)NCc1ccc(-c2ccc(F)c(Cl)c2)o1`, the RP-LC retention time turned out to be 644 s.

Turning to `O=C1NC2=C(C(=O)N(CCC3=CCCCC3)C2)C(c2ccccc2F)N1` (stereo unspecified), the RP-LC retention time stood at 684 s.

In turn, `Cc1nc(-c2ccc(N3CCN(C(=O)c4cc(Cl)ccc4F)CC3)nc2)sc1C` showed an RP-LC retention time of 990 s.

`COC1CN(c2cccc(F)c2)C12CCN(C(=O)NC1CCCCC1)CC2` (stereo unspecified) returned an RP-LC retention time of 1030 s.

The molecule `CC(C)(C)CNC(=O)c1cc(=O)[nH]c2ccccc12` came in with an RP-LC retention time of 869 s.

`Cc1ccc(C(C)NC(=O)Cn2cc(-c3noc(-c4cccnc4)n3)nc2C)cc1` (stereo unspecified) came in with an RP-LC retention time of 715 s.

`N#Cc1ccc(-c2nc(-c3ccc4c(c3)nnn4CCN3CCCCC3)no2)cc1` yielded an RP-LC retention time of 676 s.

Molecule `O=C(c1cn2ccnc(-c3ccccc3)c2n1)N1CCN(C(=O)c2ccco2)CC1` had an RP-LC retention time of 686 s.

Take `COC(=O)c1ccccc1OCc1cc(=O)oc2ccc(C)cc12`: the RP-LC retention time was determined as 983 s.

`COc1ccc(OC)c(CNC(=O)C2CCCN(c3ncnc4c3nc3n4CCCCC3)C2)c1` (stereo unspecified) gave an RP-LC retention time of 746 s.

`COCCNC(=O)C1CCN(C(=O)c2cc3oc(C)cc3n2Cc2c(F)cccc2Cl)CC1` had an RP-LC retention time of 804 s.

Molecule `COc1ccc(N2CCN(C(=O)C3CCCN(c4nccc5sc(C)cc45)C3)CC2)cc1` (stereo unspecified) displayed an RP-LC retention time of 676 s.

The molecule `CC(C)Oc1ccc(-c2noc(Cn3c(=O)n(CCc4ccccc4)c(=O)c4sccc43)n2)cc1` had an RP-LC retention time of 1230 s.

The molecule `COC(=O)c1ccc(NC(=O)CSc2nnc(CN3CCOCC3)o2)cc1` returned an RP-LC retention time of 576 s.

For `CCn1c(=O)c2ccccc2n(Cc2nc(-c3cc(OC)cc(OC)c3)no2)c1=O`, the RP-LC retention time worked out at 1000 s.

In turn, `CCN1C(=O)c2cccnc2Sc2cc(CNC(=O)c3sccc3C)ccc21` displayed an RP-LC retention time of 779 s.

With `COc1cccc(N2CCN(C(=O)C3CCN(c4nccnc4Sc4ccccc4)CC3)CC2)c1`, the RP-LC retention time was found to be 1070 s.

Molecule `Cc1cc(NC(=O)Cn2nc(C(=O)N3CCOCC3)c3ccccc32)ccc1Br` had an RP-LC retention time of 862 s.

In turn, `Cc1cc(Cl)ccc1NC(=O)c1cc(C2CC2)on1` displayed an RP-LC retention time of 1040 s.

The molecule `CCOC(=O)c1ccc2nc(NC(=O)C3CCCCN3S(C)(=O)=O)sc2c1` (stereo unspecified) returned an RP-LC retention time of 839 s.

For `CC1(C)CC(=O)c2cn(-c3ccc(F)cc3)c(=O)c(C(=O)N3CCC(N4CCCCC4)CC3)c2C1`, the RP-LC retention time came to 634 s.

Molecule `CN1C(=O)C(CC(=O)NC2CCCC2)Sc2ncccc21` (stereo unspecified) returned an RP-LC retention time of 668 s.

For `Cc1ccc2nc(C(=O)NCc3cccs3)cn2c1`, the RP-LC retention time amounted to 646 s.

For `CC1CCCN(c2nc(C(=O)NC3CC3)cs2)C1` (stereo unspecified), the RP-LC retention time was determined as 590 s.

The molecule `Cc1ccc(C)c(N2CC(c3nc(-c4ccc5c(c4)OCO5)no3)CC2=O)c1` (stereo unspecified) returned an RP-LC retention time of 998 s.

Molecule `CCCCn1c(=O)c2ccccc2n(Cc2nc(-c3ccccc3OC)no2)c1=O` yielded an RP-LC retention time of 1050 s.

Molecule `COc1cccc(CNC(=O)Cn2c(=O)c3cc(C)nn3c3ncccc32)c1` registered an RP-LC retention time of 698 s.

The molecule `Cc1ccc(C(=O)N2CCN(c3cc(-c4cccs4)[nH]n3)CC2)cc1C` registered an RP-LC retention time of 808 s.

Turning to `Cc1ccc(NC(=O)Cn2cccc2-c2nnc(C3CCC3)o2)cc1Cl`, the RP-LC retention time came out at 1010 s.

For `Cc1cc(Nc2ccccc2)nc(N2CCN(C(=O)Nc3ccc(Cl)cc3)CC2)n1`, the RP-LC retention time is 761 s.

`O=C(Cn1ccn2nc(-c3ccc(F)cc3)c(CO)c2c1=O)N1CCCc2ccccc21` showed an RP-LC retention time of 899 s.
